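Where inhibition never reached the appropriate level, the endpoint shown equals the highest concentration tested. Otherwise, values were interpolated linearly from a five-concentration, 48-hour dose response in 96-well plates. GI50 = concentration required for 50% inhibition of growth. At the TGI there is no net growth.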
Legend:
Experiment in all cases: NCI-60 cell line screen, 48 h
RPMI-8226 leukemia = test system: RPMI-8226 leukemia
NCI-H226 lung = test system: NCI-H226 lung
SNB-75 CNS = test system: SNB-75 CNS
A549 NSCLC = test system: A549 NSCLC
UO-31 renal = test system: UO-31 renal
ACHN renal = test system: ACHN renal
CAKI-1 renal = test system: CAKI-1 renal
OVCAR-5 ovarian = test system: OVCAR-5 ovarian
K-562 leukemia = test system: K-562 leukemia
A498 renal = test system: A498 renal

Row | Structure (SMILES) | TGI (RPMI-8226 leukemia) [µM] | TGI (NCI-H226 lung) [µM] | TGI (SNB-75 CNS) [µM] | TGI (A549 NSCLC) [µM] | TGI (UO-31 renal) [µM] | TGI (ACHN renal) [µM] | TGI (CAKI-1 renal) [µM] | TGI (OVCAR-5 ovarian) [µM] | TGI (K-562 leukemia) [µM] | GI50 (A498 renal) [µM] | TGI (A498 renal) [µM] | GI50 (RPMI-8226 leukemia) [µM] | GI50 (SNB-75 CNS) [µM] | GI50 (A549 NSCLC) [µM] | GI50 (UO-31 renal) [µM] | GI50 (ACHN renal) [µM] | GI50 (OVCAR-5 ovarian) [µM] | GI50 (K-562 leukemia) [µM] | GI50 (NCI-H226 lung) [µM] | GI50 (CAKI-1 renal) [µM]
1 | Cc1cccc(N=Nc2ccc(N=Nc3c(O)ccc4ccccc34)cc2C)c1 | > 100 | > 100 | 37.8 | > 100 | > 100 | > 100 | > 100 | > 100 | > 100 | – | – | – | – | – | – | – | – | – | – | –
2 | N.N.N.N.N.O=S(=O)([O-])S(=O)(=O)[O-].[Co+3] | > 100 | – | > 100 | > 100 | > 100 | > 100 | – | > 100 | > 100 | > 100 | > 100 | > 100 | 62.8 | > 100 | > 100 | > 100 | > 100 | > 100 | – | –
3 | [2H]c1nc(=Nc2cc(NC(=O)C=C)c(N(C)CCN(C)C)cc2OC)[nH]c(-c2cn(C([2H])([2H])[2H])c3ccccc23)c1[2H] | – | 26 | 24.8 | 7.64 | 2.25 | 1.65 | 1.89 | 2.93 | 3.78 | 1.21 | 4.56 | – | 10.8 | 1.14 | 0.943 | 0.0836 | 1.04 | 1.29 | 2.45 | 0.503
4 | O=c1[nH]c2cc([N+](=O)[O-])ccc2nc1/C(=N\Nc1ccccc1)C(O)c1ccc2c(c1)OCO2 (stereo not given) | > 100 | > 100 | > 100 | > 100 | > 100 | > 100 | – | – | > 100 | – | – | – | – | – | – | – | – | – | – | –
5 | c1ccc(-c2nc(N3CCCNCC3)c3nc(-c4ccccc4)oc3n2)cc1 | – | – | – | 3.71 | 2.71 | 3.11 | 3.02 | 3.18 | – | 1.07 | 2.3 | – | – | 1.8 | 1.35 | 1.71 | 1.7 | – | – | 1.52
6 | O=C1c2cccc3cccc(c23)C(=O)N1O | > 100 | – | 80.2 | > 100 | > 100 | > 100 | > 100 | > 100 | > 100 | – | > 100 | – | – | – | – | – | – | – | – | –
7 | Cc1ccc(NC(=O)/C(Cc2nc3ccc([N+](=O)[O-])cc3[nH]c2=O)=N\NC(=O)C[n+]2ccccc2)c(C)c1 | – | > 100 | > 100 | > 100 | 41.1 | 47.6 | > 100 | > 100 | – | – | – | – | – | – | – | – | – | – | – | –
8 | CC(=O)[CH-]C(=O)c1ccccc1.CC(=O)[CH-]C(=O)c1ccccc1.CC1(C)OCC(C2OC3OC(C)(C)OC3C2[O-])O1.CC[O-].[Ti+4] (stereo not given) | – | 30.1 | – | 40 | 41.9 | 35.8 | 40.9 | 31.5 | 62.6 | 15.3 | 28.6 | – | 6.6 | 16.6 | 18.8 | 17.3 | 14.2 | 15.3 | 15.2 | 22.8
9 | O=C1c2ccccc2-c2c1c1ccccc1c(=O)n2CCNCCn1c2c(c3ccccc3c1=O)C(=O)c1ccccc1-2 | – | > 25 | – | > 25 | > 25 | > 25 | > 25 | > 25 | 16.2 | > 25 | > 25 | – | – | > 25 | > 25 | > 25 | > 25 | 5.42 | > 25 | > 25
10 | Nc1ccccc1C(=O)C(Br)C(Br)c1ccc2c(c1)OCO2 (stereo not given) | > 100 | 52.2 | 60.9 | 57.3 | 45.1 | 51 | – | – | > 100 | – | 60.7 | – | – | – | – | – | – | – | – | –
11 | CCOC(=O)N1CCN(CCCCCOc2ccccc2C2CCCCC2)CC1 | 4.84 | 18.4 | 23 | 17.3 | – | 23.8 | 12.8 | – | 10.9 | 13.5 | 26.9 | 1.61 | 10.7 | 5.01 | – | 10.6 | – | 1.97 | 3.96 | 3.23
12 | Cc1ccc2oc(=O)c(-c3ccccc3)nc2c1 | > 100 | > 100 | > 100 | > 100 | 95.1 | > 100 | > 100 | 99.8 | > 100 | – | – | – | – | – | – | – | – | – | – | –
13 | Cc1cccc(C)c1N1C(=O)C(=O)C(c2nc3ccccc3s2)/C(=N/NC(=O)NN)C1=O (stereo not given) | – | > 100 | > 100 | > 100 | > 100 | > 100 | > 100 | – | – | – | > 100 | – | – | – | – | – | – | – | – | –
14 | CC1(C)CC(=O)C(CC2C(=O)c3ccccc3C2=O)C(=O)C1 | – | > 100 | > 100 | > 100 | > 100 | > 100 | > 100 | > 100 | > 100 | – | > 100 | – | – | – | – | – | – | – | – | –
15 | CC1(O)CCn2c(=O)c3cc4ccccc4cc3c(=O)n2C1O (stereo not given) | > 100 | > 100 | – | > 100 | – | > 100 | > 100 | > 100 | > 100 | – | – | – | – | – | – | – | – | – | – | –
16 | CN(C)C(=S)Nc1nnc(Nc2ccccc2)s1 | – | > 100 | > 100 | > 100 | > 100 | > 100 | > 100 | > 100 | > 100 | – | > 100 | – | – | – | – | – | – | – | – | –
17 | Cc1cc(C)n(C2=NS(=O)(=O)c3ccccc3N2C)n1 | – | > 100 | – | > 100 | > 100 | > 100 | > 100 | > 100 | > 100 | – | > 100 | – | – | – | – | – | – | – | – | –
18 | O=C1CNS(=O)(=O)N1 | > 100 | > 100 | > 100 | > 100 | > 100 | – | > 100 | – | > 100 | – | > 100 | – | – | – | – | – | – | – | – | –
19 | CN1c2ccccc2SC2C(c3ccccc3)=NOC21 (stereo not given) | – | > 100 | 56.6 | > 100 | > 100 | > 100 | > 100 | > 100 | > 100 | – | > 100 | – | – | – | – | – | – | – | – | –
20 | O=C(CC1(O)C(=O)Nc2c(Cl)ccc(Cl)c21)c1ccc(Cl)cc1Cl (stereo not given) | 43.7 | 30.5 | 46.9 | 47.2 | 37.1 | 30.5 | 64.2 | 35.6 | – | – | 42.5 | – | – | – | – | – | – | – | – | –

Source: PubChem BioAssay (NCI)
